Results as given in patent US7973147B2, “K04-0144 substance and a process for production thereof” (The Kitasato Institute, priority 2006, dated 2011).
≈ marks a conversion by molar mass, not a printed value. Entries after “also recorded” stand apart in the source; their conditions may differ. Where two headings read alike, the source gives them in different places.

What was measured:
[1] = test system: methicillin-resistant Staphylococcus aureus (MRSA) K24 strain; assay: Enhancing action on activity of imipenem by paper disc method; type: cell-based
Experimental: Clinical isolate of methicillin-resistant Staphylococcus aureus (MRSA) K24 strain was used as a test microorganism. After the strain of MRSA K24 was cultured in Mueller-Hinton broth (2.1% w/v) (DIFCO) at 37° C. for 20 hours, the strain was suspended to the concentration corresponding to 0.5 Mc FARAND (about 10^8 CFU/ml) in the same medium. The suspension was smeared on MHA medium (Mueller-Hinton broth 2.1% (w/v), agar 1.5%) and a medium of the same composition containing imipenem (Tienem for Intramuscular Injection, 0.5 g, Banyu Pharmaceutical Co., Ltd., Japan) with a concentration without affecting the growth of test microorganisms, i.e. final concentration of 10 μg/ml. Smearing was performed according to the method of National Committee for Laboratory Standard, the U.S. (NCCLS), by using sterilized cotton-tipped swab (Kawamoto Sangyo Co., Ltd., Japan).

Solubility in solvent = type: physicochemical
[2] = test system: MRSA (Clinical isolate, the Kitasato Hospital, Japan); assay: Enhancing action of K04-0144D substance on antibiotic activities, broth microdilution method; type: cell-based, methicillin-resistant Staphylococcus aureus; conditions: for MIC: Staphylococcus aureus, MRSA
MRSA 70 = assay: MIC, agar plate dilution method; type: cell-based, methicillin-resistant Staphylococcus aureus; conditions: Staphylococcus aureus; MRSA 70; 37° C., 20 hours; read-out: MIC
Experimental: (§1) Assay of minimum inhibitory concentration (MIC) was performed according to the agar plate dilution method (Method of Japan Society of Chemotherapy, CHEMOTHERAPY 29, 76-79, 1981).
(§2) Test organisms used were 27 types of microorganisms including clinical isolates of methicillin-resistant Staphylococcus aureus. Each test organism was cultured in Mueller-Hinton broth (2.1% w/v) (DIFCO) at 37° C. for 20 hours, and the cultured cells were suspended to about 10^6 cell counts/ml in the same medium, then was used as the microbial suspension for inoculation. The prepared microbial suspension was smeared by using the microplanter on MHA medium (Mueller-Hinton broth 2.1% (w/v) and agar 1.5%) containing K04-0144A substance, K04-0144B substance or K04-0144C substance, each of which was subjected to two-fold stepwise dilution from 128 μg/ml. After culturing at 37° C. for 20 hours, MIC was determined by macroscopically confirming the growth of microorganisms. Vancomycin, arbekacin and linezolid were used as a comparative control.

MRSA N315 IR94 HR-1 = assay: MIC, agar plate dilution method; type: cell-based, methicillin-resistant Staphylococcus aureus; conditions: Staphylococcus aureus, 20 h
Experimental: as §1, §2

MRSA 92-1191 = assay: MIC, agar plate dilution method; type: cell-based, methicillin-resistant Staphylococcus aureus; conditions: Staphylococcus aureus; MRSA 92-1191; 37° C., 20 hours; read-out: MIC
Experimental: as §1, §2

P. aeruginosa 46001 = assay: MIC, agar plate dilution method; type: cell-based; conditions: Pseudomonas aeruginosa; P. aeruginosa 46001; 37° C., 20 hours; read-out: MIC
Experimental: as §1, §2

S. aureus FDA209P = assay: MIC, agar plate dilution method; type: cell-based; conditions: Staphylococcus aureus; S. aureus FDA209P; 37° C., 20 hours; read-out: MIC
Experimental: as §1, §2

[3] = test system: E. faecium NTCT12203(VanA); assay: MIC, agar plate dilution method; type: cell-based; conditions: Enterococcus faecium; E. faecium NTCT12203(VanA); 37° C., 20 hours; read-out: MIC
Experimental: as §1, §2

P. mirabilis IFO3849 = assay: MIC, agar plate dilution method; type: cell-based; conditions: Proteus mirabilis; P. mirabilis IFO3849; 37° C., 20 hours; read-out: MIC
Experimental: as §1, §2

S. aureus 8325(pMS97) = assay: MIC, agar plate dilution method; type: cell-based; conditions: Staphylococcus aureus, 20 h
Experimental: as §1, §2

E. cloacae IFO13535 = assay: MIC, agar plate dilution method; type: cell-based; conditions: Enterobacter cloacae; E. cloacae IFO13535; 37° C., 20 hours; read-out: MIC
Experimental: as §1, §2

M. morganii IID Kono = assay: MIC, agar plate dilution method; type: cell-based; conditions: Morganella morganii; M. morganii IID Kono; 37° C., 20 hours; read-out: MIC
Experimental: as §1, §2

S. marcescens IFO12648 = assay: MIC, agar plate dilution method; type: cell-based; conditions: Serratia marcescens; S. marcescens IFO12648; 37° C., 20 hours; read-out: MIC
Experimental: as §1, §2

E. coli NIHJ JC-2 = assay: MIC, agar plate dilution method; type: cell-based; conditions: Escherichia coli, NIHJJC2; E. coli NIHJ JC-2; 37° C., 20 hours; read-out: MIC
Experimental: as §1, §2

C. freundii ATCC8090 = assay: MIC, agar plate dilution method; type: cell-based; conditions: Citrobacter freundii; C. freundii ATCC8090; 37° C., 20 hours; read-out: MIC
Experimental: as §1, §2

[4] = test system: E. facecalis NTCT12201(VanA); assay: MIC, agar plate dilution method; type: cell-based; conditions: E. facecalis NTCT12201(VanA); 37° C., 20 hours; read-out: MIC
Experimental: as §1, §2

S. epidermidis IFO12648 = assay: MIC, agar plate dilution method; type: cell-based; conditions: Staphylococcus epidermidis; S. epidermidis IFO12648; 37° C., 20 hours; read-out: MIC
Experimental: as §1, §2

E. aerogenes NCTC10006 = assay: MIC, agar plate dilution method; type: cell-based; conditions: Klebsiella aerogenes; E. aerogenes NCTC10006; 37° C., 20 hours; read-out: MIC
Experimental: as §1, §2

P. aeruginosa E-2 = assay: MIC, agar plate dilution method; type: cell-based; conditions: Pseudomonas aeruginosa, E2; P. aeruginosa E-2; 37° C., 20 hours; read-out: MIC
Experimental: as §1, §2

S. aureus ISP217 = assay: MIC, agar plate dilution method; type: cell-based; conditions: Staphylococcus aureus; S. aureus ISP217; 37° C., 20 hours; read-out: MIC
Experimental: as §1, §2

S. aureus ISP447 = assay: MIC, agar plate dilution method; type: cell-based; conditions: Staphylococcus aureus; S. aureus ISP447; 37° C., 20 hours; read-out: MIC
Experimental: as §1, §2

K. pneumoniae NCTN9632 = assay: MIC, agar plate dilution method; type: cell-based; conditions: Klebsiella pneumoniae; K. pneumoniae NCTN9632; 37° C., 20 hours; read-out: MIC
Experimental: as §1, §2

M. luteus ATCC9341 = assay: MIC, agar plate dilution method; type: cell-based; conditions: Micrococcus luteus; M. luteus ATCC9341; 37° C., 20 hours; read-out: MIC
Experimental: as §1, §2

A. calcoaceticus IFO2552 = assay: MIC, agar plate dilution method; type: cell-based; conditions: Acinetobacter calcoaceticus; A. calcoaceticus IFO2552; 37° C., 20 hours; read-out: MIC
Experimental: as §1, §2

S. aureus 8325(pEP2104) = assay: MIC, agar plate dilution method; type: cell-based; conditions: Staphylococcus aureus, 20 h
Experimental: as §1, §2

P. vulgaris OX-19 = assay: MIC, agar plate dilution method; type: cell-based; conditions: Proteus vulgaris, OX19; P. vulgaris OX-19; 37° C., 20 hours; read-out: MIC
Experimental: as §1, §2

S. aureus Smith = assay: MIC, agar plate dilution method; type: cell-based; conditions: Staphylococcus aureus; S. aureus Smith; 37° C., 20 hours; read-out: MIC
Experimental: as §1, §2

E. faecalis ATCC21212 = assay: MIC, agar plate dilution method; type: cell-based; conditions: Enterococcus faecalis; E. faecalis ATCC21212; 37° C., 20 hours; read-out: MIC
Experimental: as §1, §2

MRSA N315 IR94 = assay: MIC, agar plate dilution method; type: cell-based, methicillin-resistant Staphylococcus aureus; conditions: Staphylococcus aureus, 20 h
Experimental: as §1, §2

Compound | MIC (MRSA 70) | MIC (MRSA 92-1191) | MIC (P. aeruginosa 46001) | MIC (S. aureus FDA209P) | MIC [3] | MIC (P. mirabilis IFO3849) | MIC (E. cloacae IFO13535) | MIC (M. morganii IID Kono) | MIC (S. marcescens IFO12648) | MIC (E. coli NIHJ JC-2) | MIC (C. freundii ATCC8090) | MIC [4] | MIC (S. epidermidis IFO12648) | MIC (E. aerogenes NCTC10006) | MIC (P. aeruginosa E-2) | MIC (S. aureus ISP217) | MIC (S. aureus ISP447) | MIC (K. pneumoniae NCTN9632) | MIC (M. luteus ATCC9341) | MIC (A. calcoaceticus IFO2552) | other results
C=C/C(C)=C/CC1C2(C)CCCC(C)(C)C2CC(O)C1(O)CSCC(NC(C)=O)C(=O)O (centres unmarked) [K04-0144D substance] | – | – | – | – | – | – | – | – | – | – | – | – | – | – | – | – | – | – | – | – | Diameter of inhibition ring ([1]; 1 μg/6 mm disc, Imipenem (10 μg/ml) (+)): 15 mm; Diameter of inhibition ring ([1]; 1 μg/6 mm disc, Imipenem (10 μg/ml) (−)): did not exhibit an inhibitory ring; Diameter of inhibition ring ([1]; 10 μg/6 mm disc, Imipenem (10 μg/ml) (+)): 26 mm; Diameter of inhibition ring ([1]; 10 μg/6 mm disc, Imipenem (10 μg/ml) (−)): 14 mm; Solubility in solvent (Solubility in solvent): Soluble in methanol and water acetonitrile; also recorded: Insoluble in chloroform and hexane ethyl acetate
[H]/N=C(/N)N[C@H]1[C@H](O)[C@@H](O)[C@H](O[C@@H]2O[C@@H](C)[C@](O)(C=O)[C@H]2O[C@@H]2O[C@@H](CO)[C@H](O)[C@@H](O)[C@@H]2NC)[C@@H](N/C(N)=N\[H])[C@@H]1O [Streptomycin, streptomycin] | – | – | – | – | – | – | – | – | – | – | – | – | – | – | – | – | – | – | – | – | enhancing action of K04-0144D substance on the antibiotic's activity ([2]; K04-0144D substance 16 μg/ml): no enhancing action; Ratio (−/+K04-0144D) ([2]; MIC alone / MIC with K04-0144D substance 16 μg/ml): 2; MIC ([2]; antibiotic alone, without K04-0144D substance, read-out: Minimum Inhibitory Concentration (−)): 2 µg/mL; MIC ([2]; combined use with K04-0144D substance 16 μg/ml, read-out: Minimum Inhibitory Concentration (+)): 1 µg/mL
NCC[C@H](O)C(=O)N[C@@H]1C[C@H](N)[C@@H](O[C@H]2O[C@H](CN)CC[C@H]2N)[C@H](O)[C@H]1O[C@H]1O[C@H](CO)[C@@H](O)[C@H](N)[C@H]1O [arbekacin, reference compound] | 0.5 µg/mL (≈ 0.905 µM) | 0.5 µg/mL (≈ 0.905 µM) | 1 µg/mL (≈ 1.81 µM) | ≤ 0.25 µg/mL | 8 µg/mL (≈ 14.5 µM) | 2 µg/mL (≈ 3.62 µM) | 0.5 µg/mL (≈ 0.905 µM) | 0.5 µg/mL (≈ 0.905 µM) | 1 µg/mL (≈ 1.81 µM) | > 32 µg/mL | 0.5 µg/mL (≈ 0.905 µM) | > 32 µg/mL | ≤ 0.25 µg/mL | ≤ 0.25 µg/mL | 4 µg/mL (≈ 7.24 µM) | ≤ 0.25 µg/mL | ≤ 0.25 µg/mL | ≤ 0.25 µg/mL | ≤ 0.25 µg/mL | ≤ 0.25 µg/mL | MIC (MRSA N315 IR94 HR-1): 1 µg/mL (≈ 1.81 µM); MIC (S. aureus 8325(pMS97)): ≤ 0.25 µg/mL; MIC (S. aureus 8325(pEP2104)): ≤ 0.25 µg/mL; MIC (P. vulgaris OX-19): 2 µg/mL (≈ 3.62 µM); MIC (S. aureus Smith): ≤ 0.25 µg/mL; MIC (E. faecalis ATCC21212): > 32 µg/mL
CC(=O)NC[C@H]1CN(c2ccc(N3CCOCC3)c(F)c2)C(=O)O1 [linezolid, reference compound] | 0.5 µg/mL (≈ 1.48 µM) | 2 µg/mL (≈ 5.93 µM) | > 32 µg/mL | 1 µg/mL (≈ 2.96 µM) | 2 µg/mL (≈ 5.93 µM) | > 32 µg/mL | > 32 µg/mL | > 32 µg/mL | > 32 µg/mL | > 32 µg/mL | > 32 µg/mL | 2 µg/mL (≈ 5.93 µM) | 2 µg/mL (≈ 5.93 µM) | > 32 µg/mL | > 32 µg/mL | 2 µg/mL (≈ 5.93 µM) | 2 µg/mL (≈ 5.93 µM) | > 32 µg/mL | 2 µg/mL (≈ 5.93 µM) | > 32 µg/mL | MIC (MRSA N315 IR94): 1 µg/mL (≈ 2.96 µM); MIC (P. vulgaris OX-19): 8 µg/mL (≈ 23.7 µM); MIC (S. aureus Smith): 2 µg/mL (≈ 5.93 µM); MIC (E. faecalis ATCC21212): 2 µg/mL (≈ 5.93 µM)
